“And” between values parts separate entries of the source, which are not always exact repeats. Equal values may be shown once.
Target: T1, Human AMPK α2β2γ1 (Homo sapiens, UniProt O43741+P54646)
T1 construct: The full length cDNAs of human AMPK β2 (NM_005399.3) and human AMPK α2 (NM_006252.3); The full length cDNAs of human AMPK β2 (NM_005399.3); the full length cDNA of human AMPK γ1 (NM_002733.3) had been inserted into pET28b(+); 6×His (N); made in house; host or cells: Escherichia coli BL21 CodonPlus (DE3)-RIL
T1 sequence (P54646 whole entry): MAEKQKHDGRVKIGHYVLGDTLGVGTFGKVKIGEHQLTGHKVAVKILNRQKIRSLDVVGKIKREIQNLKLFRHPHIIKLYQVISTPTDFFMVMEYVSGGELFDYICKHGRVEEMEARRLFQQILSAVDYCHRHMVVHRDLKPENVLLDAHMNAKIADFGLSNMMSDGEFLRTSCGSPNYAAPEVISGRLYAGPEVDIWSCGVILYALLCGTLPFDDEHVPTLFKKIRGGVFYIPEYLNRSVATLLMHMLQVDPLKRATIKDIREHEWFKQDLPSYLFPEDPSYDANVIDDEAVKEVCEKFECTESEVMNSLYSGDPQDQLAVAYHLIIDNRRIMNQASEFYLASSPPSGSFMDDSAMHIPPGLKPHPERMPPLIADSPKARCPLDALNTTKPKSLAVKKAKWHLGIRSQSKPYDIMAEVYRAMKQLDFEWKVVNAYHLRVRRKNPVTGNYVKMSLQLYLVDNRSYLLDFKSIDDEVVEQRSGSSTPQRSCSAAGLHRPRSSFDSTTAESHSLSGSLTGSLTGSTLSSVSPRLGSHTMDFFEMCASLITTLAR
T1 sequence (O43741 whole entry): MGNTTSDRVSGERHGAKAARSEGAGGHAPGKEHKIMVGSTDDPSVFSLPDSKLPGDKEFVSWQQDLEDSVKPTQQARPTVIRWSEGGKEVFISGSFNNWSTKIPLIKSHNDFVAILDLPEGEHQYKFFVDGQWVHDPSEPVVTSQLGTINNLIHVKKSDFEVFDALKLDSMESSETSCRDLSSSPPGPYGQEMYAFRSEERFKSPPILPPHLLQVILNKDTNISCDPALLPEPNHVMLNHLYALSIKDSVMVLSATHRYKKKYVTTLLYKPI
T1 sequence (P54619 whole entry partner): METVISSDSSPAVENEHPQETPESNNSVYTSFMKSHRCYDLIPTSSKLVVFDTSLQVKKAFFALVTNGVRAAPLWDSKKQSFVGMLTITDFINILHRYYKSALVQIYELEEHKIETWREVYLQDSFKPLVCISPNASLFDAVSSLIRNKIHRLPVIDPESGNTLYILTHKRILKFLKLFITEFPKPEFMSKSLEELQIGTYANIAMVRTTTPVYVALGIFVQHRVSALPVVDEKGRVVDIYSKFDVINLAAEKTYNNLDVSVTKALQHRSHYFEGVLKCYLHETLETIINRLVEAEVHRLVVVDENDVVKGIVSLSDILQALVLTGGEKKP
Test: Test Example 2: activation of phosphorylated human AMPK α2β2γ1 (mobility-shift kinase assay, FL-Peptide 7)
Assay type: biochemical
Conditions: compound concentration showing 150% relative to the control (100%); human AMPK α2β2γ1 phosphorylated with CaMKK2
Procedure: The full length cDNAs of human AMPK β2 (NM_005399.3) and human AMPK α2 (NM_006252.3) were inserted into the MCS1 and MCS2 of the pETDuet-1 vector to prepare a human AMPK β2 and human AMPK α2 (6×His tag at the 5′ terminus) expressing plasmid. The plasmid was cotransfected with an expression plasmid, in which the full length cDNA of human AMPK γ1 (NM_002733.3) had been inserted into pET28b(+), into BL21 CodonPlus (DE3)-RIL to obtain an expression strain. The expression strain was cultured in TB medium, followed by induction with 0.5 mM IPTG, and cultured at 25° C. for 3 hours and then harvested. After ultrasonication, supernatant was collected and applied to Histrap FF column (GE) and RESOUECE Q column (GE) to prepare 12.5 mg of purified sample containing three types of subunit from 1.8 L of broth.
An expression vector, in which the full length cDNA of human CAMKK β (NM_172226.1) had been inserted into pGEX-6P-3, was transfected into BL21 Star (DE3). The expression strain was cultured in TB medium, followed by induction with 0.5 mM IPTG, and cultured at 25° C. for 3 hours and then harvested. After ultrasonication, supernatant was collected and applied to GSTrap FF column (GE) to prepare 14 mg of GST-fused CAMKK β from 720 ml of broth.
Thus, phosphorylation treatment was carried out as pretreatment.
Human AMPK α2β2γ1 in an amount to give a conversion rate of approximately 10% by reaction for 2 hours, and CaMKK2 in an amount capable of sufficiently imparting activity to AMPK for one hour were mixed in a buffer solution consisting of a 50 mM HEPES-NaOH buffer solution (pH 7.0), 100 mM NaCl, 5 mM magnesium chloride, 0.1% bovine serum albumin, 0.2 mM sodium orthovanadate(V), 1 mM ethylene glycol-bis(2-aminoethyl ether)-N,N,N′,N′-tetraacetic acid (EGTA), 5 mM disodium β-glycerophosphate, 1 mM dithiothreitol and 0.2 mM ATP, and the resulting liquid was left to stand at 25° C. for 1 to 1.5 hours to sufficiently phosphorylate AMPK.
After that, to the enzyme liquid, which had been subjected to phosphorylation treatment, a compound dissolved in DMSO was added so as to have a 1% DMSO concentration. The resulting liquid was left to stand for 10 minutes.
To the liquid, a substrate solution consisting of a 50 mM HEPES-NaOH buffer solution (pH 7.0), 100 mM NaCl, 10 mM magnesium chloride, 0.1% bovine serum albumin, 0.2 mM sodium orthovanadate(V), 1 mM ethylene glycol-bis(2-aminoethyl ether)-N,N,N′,N′-tetraacetic acid (EGTA), 5 mM disodium β-glycerophosphate, 2 mM dithiothreitol, 0.4 mM ATP and 3 μM FL-Peptide 7 (manufactured by Caliper Life Sciences, Inc.) was added in equal amount (10 μl in total). The resulting liquid was allowed to react at 25° C. for 2 hours, then 10 μl of 20 mM EDTA was added thereto to stop the reaction.
To detect phosphorylated fluorescent substrates, the reaction mixture was applied to a measuring device, LabChip EZ Reader II manufactured by Caliper Life Science, Inc., for detecting fluorescence by using differences in mobility due to differences in charge. The setting conditions for the device were pressure, −1.5 PSI; upstream voltage, −2250 V; downstream voltage, −400 V; post sample buffer sip time, 40 seconds; final delay, 120 seconds; and peak order, Product First.
A conversion rate was calculated from the peak heights of the obtained substrate and product. The conversion rate when not containing a compound was used as a control, and a concentration dependent curve was made by plotting the rate of increase in activity to the control at each concentration of a compound.

SMILES | EC150 [nM]
CC(=O)N(C)c1ccc(-c2ccc(-c3nc4cc(O[C@@H]5CO[C@H]6[C@@H]5OC[C@H]6O)[nH]c4cc3F)cc2)cc1 [Compound I-1-36] | 1.7
COc1cc(-c2ccc(N=S3(=O)CCCC3)cc2)ccc1-c1nc2cc(O[C@@H]3CO[C@H]4[C@@H]3OC[C@H]4O)[nH]c2cc1F [Compound I-1-20] | 8.3
CS(C)(=O)=Nc1ccc(-c2ccc(-c3nc4cc(O[C@@H]5CO[C@H](CO)[C@H]5O)[nH]c4cc3F)cc2)cc1 [Compound I-2-23] | 28
COCC(=O)Nc1ccc(-c2ccc(-c3nc4cc(O[C@@H]5CO[C@H](CO)C5)[nH]c4cc3F)cc2)cc1 [Compound I-2-74] | 1.2
COC(=O)NC1CC=C(c2ccc(-c3nc4cc(O[C@@H]5CO[C@H]6[C@@H]5OC[C@H]6O)[nH]c4cc3F)cc2)CC1 (stereo partly drawn) [Compound I-1-23] | 2.9
CS(C)(=O)=Nc1ccc(-c2ccc(-c3nc4cc(O[C@H]5CCOC5)[nH]c4cc3Cl)cc2)cc1 [Compound I-1-01] | 24
COCCOCCOc1ccc(-c2ccc(-c3nc4cc(O[C@@H]5CO[C@H]6[C@@H]5OC[C@H]6O)[nH]c4cc3F)cc2)cc1 [Compound I-2-48] | 1.1
CN(C)S(=N)(=O)c1ccc(-c2ccc(-c3nc4cc(O[C@@H]5CO[C@H](CO)C5)[nH]c4cc3F)cc2)cc1 (stereo partly drawn) [Compound I-2-25] | 1.9
O=S1(=Nc2ccc(-c3ccc(-c4nc5cc(O[C@@H]6CO[C@H]7[C@@H]6OC[C@H]7O)[nH]c5cc4F)cc3)cc2)CCOCC1 [Compound I-1-42] | 5.3
OC1CCN(c2ccc(-c3ccc(-c4nc5cc(O[C@@H]6CO[C@H]7[C@@H]6OC[C@H]7O)[nH]c5cc4F)cc3)cc2)C1 (stereo partly drawn) [Compound I-1-59] | 2.9
O=C(c1ccc(-c2ccc(-c3nc4cc(O[C@@H]5CO[C@H](CO)C5(F)F)[nH]c4cc3F)cc2)cc1)N1CCOCC1 [Compound I-2-97] | 4.6
CS(C)(=O)=Nc1ccc(-c2ccc(-c3nc4cc(O[C@H]5CO[C@H](CO)[C@@H](O)C5)[nH]c4cc3F)cc2)cc1 [Compound I-1-04] | 6.2
O=C(Nc1ccc(-c2ccc(-c3nc4cc(O[C@@H]5CO[C@H]6[C@@H]5OC[C@H]6O)[nH]c4cc3F)cc2)cc1)[C@@H]1C[C@@H]1F [Compound I-2-05] | 6.8
OC[C@H]1OC[C@@H](Oc2cc3nc(-c4ccc(C5(CO)CC5)cc4)c(F)cc3[nH]2)C1(F)F [Compound I-2-90] | 1.9
CCOCCOc1ccc(-c2ccc(-c3nc4cc(O[C@@H]5CO[C@H]6[C@@H]5OC[C@H]6O)[nH]c4cc3F)cc2)cc1 [Compound I-2-61] | 5.1
CN(C)S(=N)(=O)c1ccc(-c2ccc(-c3nc4cc(O[C@@H]5CO[C@H]6[C@@H]5OC[C@H]6O)[nH]c4cc3F)cc2)cc1 (stereo partly drawn) [Compound I-2-11] | 2.1

Same assay, conditions: maximum rate of increase in activity within the measurement range, control = 100%

SMILES | Emax
COC(=O)NC1CC=C(c2ccc(-c3nc4cc(O[C@@H]5CO[C@H]6[C@@H]5OC[C@H]6O)[nH]c4cc3F)cc2)CC1 (stereo partly drawn) [Compound I-1-23] | 436%
CCC(=O)NC1CCN(c2ccc(-c3nc4cc(O[C@@H]5CO[C@H]6[C@@H]5OC[C@H]6O)[nH]c4cc3F)cc2)CC1 [Compound I-1-12] | 497% and 523%

Same assay, conditions: maximum rate of increase in activity within the measurement range, control = 100%; read-out: Emax

SMILES | Emax [%]
CC(=O)N(C)c1ccc(-c2ccc(-c3nc4cc(O[C@@H]5CO[C@H]6[C@@H]5OC[C@H]6O)[nH]c4cc3F)cc2)cc1 [Compound I-1-36] | 437
COc1cc(-c2ccc(N=S3(=O)CCCC3)cc2)ccc1-c1nc2cc(O[C@@H]3CO[C@H]4[C@@H]3OC[C@H]4O)[nH]c2cc1F [Compound I-1-20] | 457
CS(C)(=O)=Nc1ccc(-c2ccc(-c3nc4cc(O[C@@H]5CO[C@H](CO)[C@H]5O)[nH]c4cc3F)cc2)cc1 [Compound I-2-23] | 224
COCC(=O)Nc1ccc(-c2ccc(-c3nc4cc(O[C@@H]5CO[C@H](CO)C5)[nH]c4cc3F)cc2)cc1 [Compound I-2-74] | 656
CS(C)(=O)=Nc1ccc(-c2ccc(-c3nc4cc(O[C@H]5CCOC5)[nH]c4cc3Cl)cc2)cc1 [Compound I-1-01] | 282
COCCOCCOc1ccc(-c2ccc(-c3nc4cc(O[C@@H]5CO[C@H]6[C@@H]5OC[C@H]6O)[nH]c4cc3F)cc2)cc1 [Compound I-2-48] | 635
CN(C)S(=N)(=O)c1ccc(-c2ccc(-c3nc4cc(O[C@@H]5CO[C@H](CO)C5)[nH]c4cc3F)cc2)cc1 (stereo partly drawn) [Compound I-2-25] | 426
O=S1(=Nc2ccc(-c3ccc(-c4nc5cc(O[C@@H]6CO[C@H]7[C@@H]6OC[C@H]7O)[nH]c5cc4F)cc3)cc2)CCOCC1 [Compound I-1-42] | 472
OC1CCN(c2ccc(-c3ccc(-c4nc5cc(O[C@@H]6CO[C@H]7[C@@H]6OC[C@H]7O)[nH]c5cc4F)cc3)cc2)C1 (stereo partly drawn) [Compound I-1-59] | 470
O=C(c1ccc(-c2ccc(-c3nc4cc(O[C@@H]5CO[C@H](CO)C5(F)F)[nH]c4cc3F)cc2)cc1)N1CCOCC1 [Compound I-2-97] | 527
CS(C)(=O)=Nc1ccc(-c2ccc(-c3nc4cc(O[C@H]5CO[C@H](CO)[C@@H](O)C5)[nH]c4cc3F)cc2)cc1 [Compound I-1-04] | 332
O=C(Nc1ccc(-c2ccc(-c3nc4cc(O[C@@H]5CO[C@H]6[C@@H]5OC[C@H]6O)[nH]c4cc3F)cc2)cc1)[C@@H]1C[C@@H]1F [Compound I-2-05] | 632
OC[C@H]1OC[C@@H](Oc2cc3nc(-c4ccc(C5(CO)CC5)cc4)c(F)cc3[nH]2)C1(F)F [Compound I-2-90] | 406
CCOCCOc1ccc(-c2ccc(-c3nc4cc(O[C@@H]5CO[C@H]6[C@@H]5OC[C@H]6O)[nH]c4cc3F)cc2)cc1 [Compound I-2-61] | 562
CN(C)S(=N)(=O)c1ccc(-c2ccc(-c3nc4cc(O[C@@H]5CO[C@H]6[C@@H]5OC[C@H]6O)[nH]c4cc3F)cc2)cc1 (stereo partly drawn) [Compound I-2-11] | 408

Source: US10478425B2, “5-phenylazaindole derivative having AMPK-activating activity” (Shionogi & Co., Ltd., priority 2016, dated 2019)
